Values quoted from earlier work in patent US9459187B2, “Blood collection device containing lysophospholipase inhibitor” (Becton, Dickinson and Company, priority 2011, dated 2016).

Key:
[1] = molecular target: acetylcholinesterase (AChE) (Homo sapiens, UniProt P22303); conditions: read-out: Ki for AChE
Sequence of acetylcholinesterase (AChE) (P22303 32-614, species assumed): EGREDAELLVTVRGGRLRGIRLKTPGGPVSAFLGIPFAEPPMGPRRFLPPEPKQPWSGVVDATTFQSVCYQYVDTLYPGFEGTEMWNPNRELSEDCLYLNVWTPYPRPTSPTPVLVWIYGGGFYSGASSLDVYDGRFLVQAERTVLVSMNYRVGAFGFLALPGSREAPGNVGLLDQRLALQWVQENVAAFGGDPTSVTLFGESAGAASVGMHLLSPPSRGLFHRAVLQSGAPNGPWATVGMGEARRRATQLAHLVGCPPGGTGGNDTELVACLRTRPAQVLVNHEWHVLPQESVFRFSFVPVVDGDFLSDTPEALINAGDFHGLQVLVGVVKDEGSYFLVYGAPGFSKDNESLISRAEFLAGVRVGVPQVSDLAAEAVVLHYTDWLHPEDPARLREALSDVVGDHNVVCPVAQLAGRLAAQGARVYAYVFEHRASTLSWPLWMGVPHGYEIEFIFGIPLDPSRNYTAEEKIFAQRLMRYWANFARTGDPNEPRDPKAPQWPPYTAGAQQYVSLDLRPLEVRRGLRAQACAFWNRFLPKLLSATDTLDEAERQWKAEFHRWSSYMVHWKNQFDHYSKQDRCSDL

Row | Molecule | Ki [1] [nM] | half-life in circulation
1 | CCC1=CC2Cc3nc4cc(Cl)ccc4c(N)c3[C@H](C1)C2 [Huprine X, (1S)-7-chloro-15-ethyl-10-azatetracyclo[11.3.1.0^{2,11}.0^{4,9}]heptadeca-2(11),3,5,7,9,14-hexaen-3-amine] | 0.026 | 
2 | GIP(1-42) |  | about 5 minutes
3 | ghrelin: 28-amino acid peptide having the sequence NH2-GSSFLSPEHQRVQQRKESKKPPAKLQPR-COOH (H-GSSFLSPEHQRVQQRKESKKPPAKLQPR-OH; ends and bridges not checked) |  | about 30 minutes
4 | glucagon: 29-amino acid peptide involved in carbohydrate metabolism |  | 8 to 18 min
